Experimental data as given in article PMC9596378, “Discovery and molecular basis of subtype-selective cyclophilin inhibitors” (Nature Chemical Biology, 2022).
Read-outs that look alike come from different tables or passages of the source.

Legend:
Cyp40 = Cyp40 (Homo sapiens, UniProt Q08752); test: Chymotrypsin coupled prolyl-isomerase assay
Method: (§1) Adapting a previously described protocol, with an Agilent Bravo Velocity 11 with a 384ST head, 90 µL assay buffer (25 mM HEPES pH 7.3, 100 mM NaCl, 0.01% Triton X-100) containing 5.28 nM cyclophilin was added into a flat, clear-bottom, black 384-well plate pre-chilled in a Corning CoolBox at 2–3 °C. Five microliters of compound pre-dissolved in 5% DMSO/assay buffer was then added to appropriate wells and incubated at 2–3 °C for 5 min. Five microliters of 0.5 mM α-chymotrypsin from bovine pancreas (Type II, lyophilized powder, Millipore-Sigma) in 20% 1 mM HCl/Assay Buffer was then added to each well and incubated at 2–3 °C for 5 min. The plate was then quickly transferred to a FLIPR Tetra High-Throughput Cellular Screening System (Molecular Devices). Using the internal liquid handling system of the FLIPR, 1 µL 0.5 mM Suc-AAPF-AMC (Chymotrypsin Substrate II, Millipore-Sigma) dissolved in 0.55 M LiCl/2,2,2-trifluoroethanol was added to each well, which was then mixed for 5 s, followed by immediate fluorescence measurements every 1 s for 330 s using a 360–380 nm excitation LED module and a 400–460 nm emission filter. Final concentrations of the plate include 5 nM cyclophilin, 0.25% DMSO, 25 µM α-chymotrypsin, 5 µM Suc-AAPF-AMC. Raw fluorescence data was analyzed by non-linear regression analysis with Prism v.9 by fitting one-phase association curves to each well. […] Rate constants calculated for each well (s^−1) were then normalized to substrate only (no prolyl-isomerase) and enzyme + substrate only controls. IC50 values were calculated as the value at which 50% inhibition was achieved on the non-linear regression fitted curve of each compound.

PPWD1 = biological target: T1, PPWD1 (Homo sapiens, UniProt Q96BP3); test: Chymotrypsin coupled prolyl-isomerase assay; assay type: biochemical
T1 construct: PPWD1 (UniProtKB Entry Q96BP3: residues 473–646); host or cells: E. coli BL21(DE3)
T1 sequence (Q96BP3 473-646): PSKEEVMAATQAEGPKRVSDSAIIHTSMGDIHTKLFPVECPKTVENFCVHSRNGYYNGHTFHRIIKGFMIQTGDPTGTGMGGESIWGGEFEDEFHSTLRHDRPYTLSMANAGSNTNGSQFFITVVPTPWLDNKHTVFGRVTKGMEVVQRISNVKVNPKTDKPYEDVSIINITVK
Method: Five microliters of compound pre-dissolved in 5% DMSO/assay buffer was then added to appropriate wells and incubated at 2–3 °C for 5 min. Five microliters of 0.5 mM α-chymotrypsin from bovine pancreas (Type II, lyophilized powder, Millipore-Sigma) in 20% 1 mM HCl/Assay Buffer was then added to each well and incubated at 2–3 °C for 5 min. The plate was then quickly transferred to a FLIPR Tetra High-Throughput Cellular Screening System (Molecular Devices). Using the internal liquid handling system of the FLIPR, 1 µL 0.5 mM Suc-AAPF-AMC (Chymotrypsin Substrate II, Millipore-Sigma) dissolved in 0.55 M LiCl/2,2,2-trifluoroethanol was added to each well, which was then mixed for 5 s, followed by immediate fluorescence measurements every 1 s for 330 s using a 360–380 nm excitation LED module and a 400–460 nm emission filter. […] Raw fluorescence data was analyzed by non-linear regression analysis with Prism v.9 by fitting one-phase association curves to each well. Analyses were halted after the calculated maximum fluorescent value owing to observed fluorescent bleaching during the sustained fluorescent plateau. Rate constants calculated for each well (s^−1) were then normalized to substrate only (no prolyl-isomerase) and enzyme + substrate only controls.

CypH = biological target: T2, CypH (Homo sapiens, UniProt O43447); test: Chymotrypsin coupled prolyl-isomerase assay; assay type: biochemical
T2 construct: PPIH (UniProtKB Entry O43447: residues 1–177); His6 with TEV site (2BT vector leader) (N); made in house; host or cells: E. coli BL21(DE3)
T2 sequence (O43447 whole entry, the tested form may be a part): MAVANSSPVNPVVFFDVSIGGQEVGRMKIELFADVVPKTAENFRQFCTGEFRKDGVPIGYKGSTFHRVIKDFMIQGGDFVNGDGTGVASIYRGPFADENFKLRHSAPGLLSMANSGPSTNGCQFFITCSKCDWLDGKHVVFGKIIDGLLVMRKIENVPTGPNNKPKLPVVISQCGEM
Method: as §1

CypA = biological target: T3, CypA (Homo sapiens, UniProt P62937); test: Chymotrypsin coupled prolyl-isomerase assay; assay type: biochemical; conditions: wild-type CypA; read-out: Wild-Type Cyclophilin Prolyl Isomerase Inhibition IC50 Values, CypA
T3 construct: PPIA (UniProtKB Entry P62937: residues 1–165); made in house; host or cells: E. coli BL21(DE3)
T3 sequence (P62937 whole entry, the tested form may be a part): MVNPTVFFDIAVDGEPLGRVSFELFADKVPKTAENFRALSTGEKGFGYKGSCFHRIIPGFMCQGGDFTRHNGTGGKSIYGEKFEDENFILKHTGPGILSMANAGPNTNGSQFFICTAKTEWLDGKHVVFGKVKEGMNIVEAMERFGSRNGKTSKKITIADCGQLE
Method: as §1

CypG = biological target: T4, CypG (Homo sapiens, UniProt Q13427); test: Chymotrypsin coupled prolyl-isomerase assay; assay type: biochemical; conditions: wild-type CypG; read-out: Wild-Type Cyclophilin Prolyl Isomerase Inhibition IC50 Values, CypG
T4 construct: PPIG (UniProtKB Entry Q13427: residues 1–179); His6 with thrombin site (pET28a LIC leader) (N); host or cells: E. coli BL21(DE3)
T4 sequence (Q13427 1-179): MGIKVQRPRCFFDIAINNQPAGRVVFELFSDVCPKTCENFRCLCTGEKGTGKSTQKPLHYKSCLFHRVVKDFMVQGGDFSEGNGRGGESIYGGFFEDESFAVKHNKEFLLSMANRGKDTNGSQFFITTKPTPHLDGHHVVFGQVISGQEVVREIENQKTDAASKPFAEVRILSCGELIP
Method: as §1

CypE = biological target: T5, CypE (Homo sapiens, UniProt Q9UNP9); test: Chymotrypsin coupled prolyl-isomerase assay; assay type: biochemical; conditions: wild-type CypE; read-out: Wild-Type Cyclophilin Prolyl Isomerase Inhibition IC50 Values, CypE
T5 construct: PPIE (UniProtKB Entry Q9UNP9: residues 131–301); host or cells: E. coli BL21(DE3)
T5 sequence (Q9UNP9 131-301): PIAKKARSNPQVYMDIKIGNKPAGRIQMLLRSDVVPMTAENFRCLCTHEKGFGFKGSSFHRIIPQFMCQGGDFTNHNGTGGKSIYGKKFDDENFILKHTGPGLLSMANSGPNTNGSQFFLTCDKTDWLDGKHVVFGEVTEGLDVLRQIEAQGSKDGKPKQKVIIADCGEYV
Method: as §1

CypC = biological target: T6, CypC (Homo sapiens, UniProt P45877); test: Chymotrypsin coupled prolyl-isomerase assay; assay type: biochemical
T6 construct: PPIC (UniProtKB Entry P45877: residues 24–212); host or cells: E. coli BL21(DE3)
T6 sequence (P45877 24-212): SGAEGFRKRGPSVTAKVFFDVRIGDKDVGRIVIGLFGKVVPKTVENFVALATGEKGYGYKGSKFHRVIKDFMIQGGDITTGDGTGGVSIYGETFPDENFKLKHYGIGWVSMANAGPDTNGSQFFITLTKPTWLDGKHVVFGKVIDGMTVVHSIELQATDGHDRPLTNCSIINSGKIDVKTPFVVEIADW
Method: as §1

CypD = CypD (Homo sapiens, UniProt P30405); test: Chymotrypsin coupled prolyl-isomerase assay
CypD, sequence (P30405 45-207): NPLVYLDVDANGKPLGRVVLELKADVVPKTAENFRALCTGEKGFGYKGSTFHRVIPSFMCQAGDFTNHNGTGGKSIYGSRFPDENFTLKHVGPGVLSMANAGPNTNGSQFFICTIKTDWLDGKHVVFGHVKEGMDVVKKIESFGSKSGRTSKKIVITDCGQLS
Method: as §1, with “Five” for “Adapting a previously described protocol, with an Agilent Bravo Velocity 11 with a 384ST head, 90 µL assay buffer (25 mM HEPES pH 7.3, 100 mM NaCl, 0.01% Triton X-100) containing 5.28 nM cyclophilin was added into a flat, clear-bottom, black 384-well plate pre-chilled in a Corning CoolBox at 2–3 °C. Five”, “Final concentrations of the plate include 5 nM cyclophilin, 0.25% DMSO, 25 µM α-chymotrypsin, 5 µM Suc-AAPF-AMC.” left out, “controls.” for “controls. IC50 values were calculated as the value at which 50% inhibition was achieved on the non-linear regression fitted curve of each compound.”

NKTR = biological target: T7, NKTR (Homo sapiens, UniProt P30414); test: Chymotrypsin coupled prolyl-isomerase assay; assay type: biochemical
T7 construct: NKTR (UniProtKB Entry P30414: residues 7–179); host or cells: E. coli BL21(DE3)
T7 sequence (P30414 7-179): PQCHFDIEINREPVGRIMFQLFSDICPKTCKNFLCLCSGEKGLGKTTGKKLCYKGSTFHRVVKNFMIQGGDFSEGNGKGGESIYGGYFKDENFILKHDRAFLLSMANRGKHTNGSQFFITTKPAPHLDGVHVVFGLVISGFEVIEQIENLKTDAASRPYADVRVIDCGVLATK

PPIL1 = biological target: T8, PPIL1 (Homo sapiens, UniProt Q9Y3C6); test: Chymotrypsin coupled prolyl-isomerase assay; assay type: biochemical; conditions: wild-type PPIL1; read-out: Wild-Type Cyclophilin Prolyl Isomerase Inhibition IC50 Values, PPIL1
T8 construct: PPIL1 (UniProtKB Entry Q9Y3C6: residues 1–166); made in house; host or cells: E. coli BL21(DE3)
T8 sequence (Q9Y3C6 1-166): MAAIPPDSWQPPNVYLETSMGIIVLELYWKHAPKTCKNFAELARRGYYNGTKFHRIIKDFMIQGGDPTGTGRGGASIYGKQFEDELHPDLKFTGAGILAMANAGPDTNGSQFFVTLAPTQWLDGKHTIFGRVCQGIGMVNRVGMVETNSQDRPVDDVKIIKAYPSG
Method: Adapting a previously described protocol[51], with an Agilent Bravo Velocity 11 with a 384ST head, 90 µL assay buffer (25 mM HEPES pH 7.3, 100 mM NaCl, 0.01% Triton X-100) containing 5.28 nM cyclophilin was added into a flat, clear-bottom, black 384-well plate pre-chilled in a Corning CoolBox at 2–3 °C. Five microliters of compound pre-dissolved in 5% DMSO/assay buffer was then added to appropriate wells and incubated at 2–3 °C for 5 min. Five microliters of 0.5 mM α-chymotrypsin from bovine pancreas (Type II, lyophilized powder, Millipore-Sigma) in 20% 1 mM HCl/Assay Buffer was then added to each well and incubated at 2–3 °C for 5 min. […] Using the internal liquid handling system of the FLIPR, 1 µL 0.5 mM Suc-AAPF-AMC (Chymotrypsin Substrate II, Millipore-Sigma) dissolved in 0.55 M LiCl/2,2,2-trifluoroethanol was added to each well, which was then mixed for 5 s, followed by immediate fluorescence measurements every 1 s for 330 s using a 360–380 nm excitation LED module and a 400–460 nm emission filter. Final concentrations of the plate include 5 nM cyclophilin, 0.25% DMSO, 25 µM α-chymotrypsin, 5 µM Suc-AAPF-AMC. Raw fluorescence data was analyzed by non-linear regression analysis with Prism v.9 by fitting one-phase association curves to each well. Analyses were halted after the calculated maximum fluorescent value owing to observed fluorescent bleaching during the sustained fluorescent plateau. Rate constants calculated for each well (s^−1) were then normalized to substrate only (no prolyl-isomerase) and enzyme + substrate only controls. IC50 values were calculated as the value at which 50% inhibition was achieved on the non-linear regression fitted curve of each compound.

CypB = biological target: T9, CypB (Homo sapiens, UniProt P23284); test: biochemical; conditions: wild-type CypB; read-out: Wild-Type Cyclophilin Prolyl Isomerase Inhibition IC50 Values, CypB
T9 construct: PPIB (UniProtKB Entry P23284: residues 34–216); His6 with TEV site (2BT vector leader) (N); made in house; host or cells: E. coli BL21(DE3)
T9 sequence (P23284 34-216): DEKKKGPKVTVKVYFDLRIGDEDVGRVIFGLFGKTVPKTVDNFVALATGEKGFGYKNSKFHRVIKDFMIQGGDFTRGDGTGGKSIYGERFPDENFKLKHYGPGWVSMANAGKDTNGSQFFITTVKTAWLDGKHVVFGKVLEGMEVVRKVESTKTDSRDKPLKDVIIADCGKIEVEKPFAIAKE
Method: as §1

HeLa cells = test: Fluorescence microscopy of Cy5-conjugated compounds; assay type: cell-based, human
Method: Cells were seeded into 96-well, black, clear-bottom, TC-treated plates, in DMEM supplemented with 10% FBS 24 h prior at a density where wells were ~80% confluent at the time of the experiment. Medium was removed and cells were then stained with 50 µL mixture containing Cy5-labeled compound (6 µM) in Kreb’s ringer solution HEPES buffered pH 7.2 (KRB), for 1 h at 37 °C. Then, 50 µL Hoechst 33342 (8 µM) and Mitotracker Green FM (0.1 µM) in KRB was added directly to wells containing cells and incubated for 15 min at 37 °C. Medium was removed and cells were washed twice with 100 µL KRB. Cells were then kept adherent to the wells in 100 µL KRB for imaging. Fluorescence microscopy was conducted on an Opera Phenix Plus High-Content Screening System, using Alexa 488, Alexa 647, and Hoescht 33342 channels. Images were analyzed using Harmony v.4.9.

[1] = Wild-Type Cyclophilin Prolyl Isomerase Inhibition IC50 Values, Cyp40, wild-type Cyp40
[2] = prolyl-isomerase inhibition, 5 nM cyclophilin, read-out: IC50 PPWD1
[3] = wild-type PPWD1, read-out: Wild-Type Cyclophilin Prolyl Isomerase Inhibition IC50 Values, PPWD1
[4] = wild-type CypH, read-out: Wild-Type Cyclophilin Prolyl Isomerase Inhibition IC50 Values, CypH
[5] = wild-type CypC, read-out: Wild-Type Cyclophilin Prolyl Isomerase Inhibition IC50 Values, CypC
[6] = Wild-Type Cyclophilin Prolyl Isomerase Inhibition IC50 Values, CypD, wild-type CypD
[7] = wild-type NKTR, read-out: Wild-Type Cyclophilin Prolyl Isomerase Inhibition IC50 Values, NKTR
[8] = read-out: Wild-Type Cyclophilin Prolyl Isomerase Inhibition IC50 Values, Cyp40, wild-type Cyp40
[9] = prolyl-isomerase inhibition, 5 nM cyclophilin, read-out: IC50 CypH
[10] = read-out: IC50 CypD, prolyl-isomerase inhibition, 5 nM cyclophilin, Suc-AAPF-AMC, mean±s.e.m. of 3 technical replicates (B52, B53, C3A wild-type: mean±s.d. of 4 independent replicates)

Cyp40, sequence (Q08752 1-183): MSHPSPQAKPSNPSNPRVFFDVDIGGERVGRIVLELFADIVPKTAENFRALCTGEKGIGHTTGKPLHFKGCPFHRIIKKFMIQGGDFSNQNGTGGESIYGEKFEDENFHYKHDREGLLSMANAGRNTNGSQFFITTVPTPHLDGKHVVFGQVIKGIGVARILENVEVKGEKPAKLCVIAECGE

IC50 (Cyp40; [1]) [µM]	SMILES	IC50 (PPWD1; [3]) [µM]	IC50 (CypH; [4]) [µM]	IC50 (CypA) [µM]	IC50 (CypG) [µM]	IC50 (CypE) [µM]	IC50 (CypC; [5]) [µM]	IC50 (NKTR; [7]) [µM]	IC50 (PPIL1) [µM]	IC50 (CypB) [µM]	IC50 (CypD; [10]) [µM]	further results
3	NCCOCCNC(=O)C1CCNC(=O)C=CC(=O)N2CCCC(C2)C(=O)NC(Cc2ccc(C(=O)c3ccccc3)cc2)C(=O)NCc2ccccc2CC(=O)N1 (stereo not shown) [Compound A14]	100	> 100	19	> 100	13	9	> 100	10	2.7	–	IC50 (PPWD1; [2]): ~100 µM; IC50 (CypD; [6]): 3.8 µM
2.6	CC12CCCN(C1)C(=O)C=CC(=O)NCCC(C(=O)NCCOCCN)NC(=O)Cc1ccccc1CNC(=O)C(Cc1ccco1)NC2=O (stereo not shown) [Compound A25]	40	24	16	1.9	14	6.5	8	11	0.9	–	IC50 (CypD; [6]): 3.6 µM
0.4	NCCOCCNC(=O)C1CCNC(=O)C=CC(=O)N2CCCC(Cc3ccccc3)(C2)C(=O)NC(Cc2ccco2)C(=O)NCc2ccccc2CC(=O)N1 (stereo not shown) [Compound A26]	3.4	2.7	1.1	0.84	0.8	0.53	4.2	0.6	0.1	–	IC50 (CypD): 0.2 µM; increase of CypD potency relative to JOMBt (CypD): 85 fold
–	CC(=O)c1ccc(-c2ccc(C[C@@H]3NC(=O)[C@]4(Cc5ccccc5)CCCN(C4)C(=O)/C=C/C(=O)NCC[C@@H](C(=O)NCCOCCN)NC(=O)Cc4ccccc4CNC3=O)cc2)cc1 [Compound B15]	0.88	80	0.4	1.8	0.15	0.38	4.9	0.1	0.08	0.038	IC50 (Cyp40; [8]): 0.06 µM; IC50 (CypH; [9]): ~80 µM; preference for CypD over CypC and Cyp40 (CypD): 2- to 20 fold
–	NCCOCCNC(=O)[C@@H]1CCNC(=O)/C=C/C(=O)N2CCC[C@](Cc3ccccc3)(C2)C(=O)N[C@@H](Cc2ccc(-c3ccc(C(=O)O)cc3)cc2)C(=O)NCc2ccccc2CC(=O)N1 [Compound B20]	> 100	> 100	3.1	> 100	1.6	60	> 100	1.4	2	0.3	IC50 (Cyp40): 2.6 µM; IC50 (CypC; prolyl-isomerase inhibition, 5 nM cyclophilin, read-out: IC50 CypC): ~60 µM; preference for CypD over CypC and Cyp40 (CypD): at least ninefold
–	NCCOCCNC(=O)[C@@H]1CCNC(=O)/C=C/C(=O)N2CCC[C@](Cc3ccccc3)(C2)C(=O)N[C@@H](Cc2ccc(-c3ccc(CC(=O)O)cc3)cc2)C(=O)NCc2ccccc2CC(=O)N1 [Compound B22]	50	100	0.7	10	0.13	14	> 100	0.6	0.23	0.04	IC50 (Cyp40; [8]): 1 µM; IC50 (PPWD1; [2]): ~50 µM; IC50 (CypH; [9]): ~100 µM
–	NCCOCCNC(=O)[C@@H]1CCNC(=O)/C=C/C(=O)N2CCC[C@](Cc3ccccc3)(C2)C(=O)N[C@@H](Cc2ccc(-c3ccc(/C=C/C(=O)O)cc3)cc2)C(=O)NCc2ccccc2CC(=O)N1 [Compound B24]	6	> 50	0.01	11	0.004	1.5	13	0.02	0.005	0.0019	IC50 (Cyp40): 0.15 µM; IC50 (NKTR; prolyl-isomerase inhibition, 5 nM cyclophilin, read-out: IC50 NKTR): ~13 µM
–	CC(=O)NCCNC(=O)CCCCCN1\C(=C/C=C/C=C/C2=[N+](C)c3ccccc3C2(C)C)C(C)(C)c2ccccc21 [Cy5-enAc, reference compound]	–	–	–	–	–	–	–	–	–	> 2	plasma membrane permeability / mitochondrial localization (in words) (HeLa cells): good mitochondrial localization
